The record followed here is paper PMC10004634 (PLOS ONE, 2023).

Holding throughout (test): biochemical
Design in all cases: KINOMEscan scanMAX competition binding, DNA-tagged kinases, qPCR read-out, percent control at 300 nM

The target in one assay is PKN2 (Homo sapiens, UniProt Q16513). As to conditions: read-out: Percent control / Acalabrutinib.
For a further assay, the target named is PRKD3 (Homo sapiens, UniProt O94806). The following applies: read-out: Percent control / Acalabrutinib.
The target in a further assay is T1, CDC2L2 (Homo sapiens, UniProt Q9UQ88).
T1 construct: gene CDK11A
The following applies: read-out: Percent control / Acalabrutinib.

In the next assay the target is PIK3CG (Homo sapiens, UniProt P48736). The following applies: read-out: Percent control / Acalabrutinib.
Another assay deals with HIPK1 (Homo sapiens, UniProt Q86Z02). The following applies: read-out: Percent control / Acalabrutinib.
A further assay concerns the target T2, YANK3 (Homo sapiens, UniProt Q86UX6).
T2 construct: gene STK32C
The following applies: read-out: Percent control / Acalabrutinib.

A further assay addresses PIK3CA(H1047Y) (Homo sapiens, UniProt P42336, H1047Y). The following applies: read-out: Percent control / Acalabrutinib.
Another assay concerns the target CAMK2G (Homo sapiens, UniProt Q13555). As to conditions: read-out: Percent control / Acalabrutinib.
A further assay concerns the target EPHA6 (Homo sapiens, UniProt Q9UF33). The following applies: read-out: Percent control / Acalabrutinib.
A further assay addresses CAMK1 (Homo sapiens, UniProt Q14012). As to conditions: read-out: Percent control / Acalabrutinib.
The target in the next assay is MARK3 (Homo sapiens, UniProt P27448). As to conditions: read-out: Percent control / Ibrutinib.
The target in another assay is T3, PRKR (Homo sapiens, UniProt P19525).
T3 construct: gene EIF2AK2
As to conditions: read-out: Percent control / Tirabrutinib.

The next assay addresses PRKG1 (Homo sapiens, UniProt Q13976). The following applies: read-out: Percent control / Tirabrutinib.
The target of a further assay is MTOR (Homo sapiens, UniProt P42345). The following applies: read-out: Percent control / Zanubrutinib.
The target of the next assay is T4, MST1 (Homo sapiens, UniProt Q13043).
T4 construct: gene STK4
As to conditions: read-out: Percent control / Zanubrutinib.

A further assay deals with LRRK2 (Homo sapiens, UniProt Q5S007). The following applies: read-out: Percent control / Zanubrutinib.
A further assay has as its target T5, IKK-beta (Homo sapiens, UniProt O14920).
T5 construct: gene IKBKB
The following applies: read-out: Percent control / Zanubrutinib.

The next assay deals with PIK3CA(E545A) (Homo sapiens, UniProt P42336, E545A). The following applies: read-out: Percent control / Zanubrutinib.
Another assay has as its target T6, S6K1 (Homo sapiens, UniProt P23443).
T6 construct: gene RPS6KB1
The following applies: read-out: Percent control / Zanubrutinib.

Another assay deals with PIK3CB (Homo sapiens, UniProt P42338). The following applies: read-out: Percent control / Zanubrutinib.
In the next assay the target is GRK1 (Homo sapiens, UniProt Q15835). As to conditions: read-out: Percent control / Zanubrutinib.
Another assay deals with CDKL5 (Homo sapiens, UniProt O76039). The following applies: read-out: Percent control / Zanubrutinib.
A further assay addresses T7, IKK-alpha (Homo sapiens, UniProt O15111).
T7 construct: gene CHUK
As to conditions: read-out: Percent control / Zanubrutinib.

T3 sequence (P19525 whole entry): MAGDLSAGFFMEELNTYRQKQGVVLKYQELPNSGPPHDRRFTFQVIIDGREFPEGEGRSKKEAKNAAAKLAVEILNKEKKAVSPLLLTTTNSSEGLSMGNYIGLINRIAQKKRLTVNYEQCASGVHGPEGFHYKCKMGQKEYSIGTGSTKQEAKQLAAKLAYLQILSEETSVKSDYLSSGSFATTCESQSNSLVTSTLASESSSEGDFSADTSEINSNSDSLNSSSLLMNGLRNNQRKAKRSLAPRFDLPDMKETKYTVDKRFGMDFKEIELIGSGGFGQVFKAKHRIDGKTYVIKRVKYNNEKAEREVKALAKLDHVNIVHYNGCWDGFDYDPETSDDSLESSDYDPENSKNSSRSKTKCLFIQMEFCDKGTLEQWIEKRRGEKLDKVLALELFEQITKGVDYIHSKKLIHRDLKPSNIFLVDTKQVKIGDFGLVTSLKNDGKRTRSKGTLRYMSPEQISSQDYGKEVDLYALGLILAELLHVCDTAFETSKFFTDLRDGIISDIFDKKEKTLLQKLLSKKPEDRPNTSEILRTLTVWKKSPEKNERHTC
T6 sequence (P23443 whole entry): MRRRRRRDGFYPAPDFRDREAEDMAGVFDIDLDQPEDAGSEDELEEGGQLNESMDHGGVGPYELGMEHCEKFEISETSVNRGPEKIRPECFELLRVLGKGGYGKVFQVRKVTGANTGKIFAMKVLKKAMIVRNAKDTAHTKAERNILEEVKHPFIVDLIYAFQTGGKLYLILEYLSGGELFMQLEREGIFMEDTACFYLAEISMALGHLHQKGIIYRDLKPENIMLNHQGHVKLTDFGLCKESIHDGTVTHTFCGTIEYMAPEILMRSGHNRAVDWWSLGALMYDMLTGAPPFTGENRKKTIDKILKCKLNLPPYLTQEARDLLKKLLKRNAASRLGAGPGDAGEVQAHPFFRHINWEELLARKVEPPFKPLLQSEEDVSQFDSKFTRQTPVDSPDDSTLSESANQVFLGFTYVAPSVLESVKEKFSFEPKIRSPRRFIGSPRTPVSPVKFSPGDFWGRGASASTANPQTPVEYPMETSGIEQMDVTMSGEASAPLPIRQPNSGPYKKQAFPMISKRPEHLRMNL
Sequence of GRK1 (Q15835 whole entry): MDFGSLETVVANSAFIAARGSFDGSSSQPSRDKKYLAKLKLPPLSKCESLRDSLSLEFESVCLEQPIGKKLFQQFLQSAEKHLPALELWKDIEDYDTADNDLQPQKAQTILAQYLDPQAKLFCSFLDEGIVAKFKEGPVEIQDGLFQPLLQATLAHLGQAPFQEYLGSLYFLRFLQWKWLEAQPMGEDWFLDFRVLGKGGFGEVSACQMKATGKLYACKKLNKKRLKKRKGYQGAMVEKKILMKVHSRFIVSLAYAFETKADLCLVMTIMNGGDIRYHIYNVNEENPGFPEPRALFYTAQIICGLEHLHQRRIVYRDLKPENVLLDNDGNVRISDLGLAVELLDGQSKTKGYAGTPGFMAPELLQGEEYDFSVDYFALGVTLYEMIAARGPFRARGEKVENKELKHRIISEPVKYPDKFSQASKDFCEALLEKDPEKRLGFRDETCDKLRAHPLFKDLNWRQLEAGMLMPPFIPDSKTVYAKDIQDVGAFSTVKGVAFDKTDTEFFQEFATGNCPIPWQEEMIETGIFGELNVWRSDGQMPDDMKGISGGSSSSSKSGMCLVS
Sequence of PIK3CG (P48736 whole entry): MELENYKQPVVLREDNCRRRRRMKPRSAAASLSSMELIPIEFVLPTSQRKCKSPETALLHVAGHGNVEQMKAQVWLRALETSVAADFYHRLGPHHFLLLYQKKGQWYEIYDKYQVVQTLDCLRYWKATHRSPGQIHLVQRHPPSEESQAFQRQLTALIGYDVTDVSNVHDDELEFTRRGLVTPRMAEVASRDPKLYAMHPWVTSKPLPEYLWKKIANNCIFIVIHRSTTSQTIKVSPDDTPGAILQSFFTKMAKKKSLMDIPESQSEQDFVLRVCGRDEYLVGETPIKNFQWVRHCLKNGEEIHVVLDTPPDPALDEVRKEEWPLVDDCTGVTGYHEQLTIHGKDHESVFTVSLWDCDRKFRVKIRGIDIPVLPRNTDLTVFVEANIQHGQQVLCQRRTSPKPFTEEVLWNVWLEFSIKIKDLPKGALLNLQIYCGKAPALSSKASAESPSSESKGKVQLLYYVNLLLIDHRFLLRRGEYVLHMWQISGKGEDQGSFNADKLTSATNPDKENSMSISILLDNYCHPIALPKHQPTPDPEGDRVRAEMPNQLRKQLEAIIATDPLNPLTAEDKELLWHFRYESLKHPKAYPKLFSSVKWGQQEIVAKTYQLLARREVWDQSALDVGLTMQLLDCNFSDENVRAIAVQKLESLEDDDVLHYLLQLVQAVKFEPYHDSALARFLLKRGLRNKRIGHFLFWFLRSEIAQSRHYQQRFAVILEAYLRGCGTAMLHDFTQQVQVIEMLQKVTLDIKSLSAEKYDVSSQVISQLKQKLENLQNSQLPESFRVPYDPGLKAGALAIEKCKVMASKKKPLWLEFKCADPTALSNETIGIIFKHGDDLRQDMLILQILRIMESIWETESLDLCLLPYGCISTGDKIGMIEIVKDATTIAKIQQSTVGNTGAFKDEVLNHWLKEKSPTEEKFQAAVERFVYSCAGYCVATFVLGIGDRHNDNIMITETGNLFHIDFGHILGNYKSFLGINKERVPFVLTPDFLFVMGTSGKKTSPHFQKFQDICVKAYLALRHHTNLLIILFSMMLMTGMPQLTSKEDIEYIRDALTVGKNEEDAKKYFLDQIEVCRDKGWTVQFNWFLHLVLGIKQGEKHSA
Sequence of HIPK1 (Q86Z02 whole entry): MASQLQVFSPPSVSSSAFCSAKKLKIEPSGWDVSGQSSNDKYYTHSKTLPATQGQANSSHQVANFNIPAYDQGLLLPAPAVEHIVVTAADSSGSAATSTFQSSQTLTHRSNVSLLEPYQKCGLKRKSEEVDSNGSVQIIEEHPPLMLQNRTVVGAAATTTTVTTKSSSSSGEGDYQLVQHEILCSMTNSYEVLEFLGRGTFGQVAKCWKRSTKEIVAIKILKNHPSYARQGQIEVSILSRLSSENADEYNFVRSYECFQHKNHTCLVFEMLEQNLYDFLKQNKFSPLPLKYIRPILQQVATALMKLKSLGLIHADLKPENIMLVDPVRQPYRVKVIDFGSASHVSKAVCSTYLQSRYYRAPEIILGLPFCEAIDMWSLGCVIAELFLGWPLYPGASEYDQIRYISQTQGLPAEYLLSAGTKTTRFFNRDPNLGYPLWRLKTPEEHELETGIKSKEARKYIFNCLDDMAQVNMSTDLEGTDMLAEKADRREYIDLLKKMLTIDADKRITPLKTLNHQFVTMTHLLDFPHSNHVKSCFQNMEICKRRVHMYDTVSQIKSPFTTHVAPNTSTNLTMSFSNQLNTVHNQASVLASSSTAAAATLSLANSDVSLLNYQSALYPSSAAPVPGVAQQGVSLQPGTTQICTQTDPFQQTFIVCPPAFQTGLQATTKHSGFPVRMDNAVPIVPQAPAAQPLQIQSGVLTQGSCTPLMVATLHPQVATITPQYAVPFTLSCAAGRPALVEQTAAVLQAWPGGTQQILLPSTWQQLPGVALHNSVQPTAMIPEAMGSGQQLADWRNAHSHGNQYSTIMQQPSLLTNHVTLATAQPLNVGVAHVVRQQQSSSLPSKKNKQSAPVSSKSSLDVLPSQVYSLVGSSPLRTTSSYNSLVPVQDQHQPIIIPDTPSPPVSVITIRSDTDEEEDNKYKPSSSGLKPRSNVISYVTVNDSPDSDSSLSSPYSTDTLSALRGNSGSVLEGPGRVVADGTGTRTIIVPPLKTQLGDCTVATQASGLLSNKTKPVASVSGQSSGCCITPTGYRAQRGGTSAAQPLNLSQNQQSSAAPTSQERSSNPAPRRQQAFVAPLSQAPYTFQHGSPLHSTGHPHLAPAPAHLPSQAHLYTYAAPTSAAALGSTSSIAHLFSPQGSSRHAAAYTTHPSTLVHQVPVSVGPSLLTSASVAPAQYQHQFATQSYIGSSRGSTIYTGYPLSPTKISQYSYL
Sequence of EPHA6 (Q9UF33 whole entry): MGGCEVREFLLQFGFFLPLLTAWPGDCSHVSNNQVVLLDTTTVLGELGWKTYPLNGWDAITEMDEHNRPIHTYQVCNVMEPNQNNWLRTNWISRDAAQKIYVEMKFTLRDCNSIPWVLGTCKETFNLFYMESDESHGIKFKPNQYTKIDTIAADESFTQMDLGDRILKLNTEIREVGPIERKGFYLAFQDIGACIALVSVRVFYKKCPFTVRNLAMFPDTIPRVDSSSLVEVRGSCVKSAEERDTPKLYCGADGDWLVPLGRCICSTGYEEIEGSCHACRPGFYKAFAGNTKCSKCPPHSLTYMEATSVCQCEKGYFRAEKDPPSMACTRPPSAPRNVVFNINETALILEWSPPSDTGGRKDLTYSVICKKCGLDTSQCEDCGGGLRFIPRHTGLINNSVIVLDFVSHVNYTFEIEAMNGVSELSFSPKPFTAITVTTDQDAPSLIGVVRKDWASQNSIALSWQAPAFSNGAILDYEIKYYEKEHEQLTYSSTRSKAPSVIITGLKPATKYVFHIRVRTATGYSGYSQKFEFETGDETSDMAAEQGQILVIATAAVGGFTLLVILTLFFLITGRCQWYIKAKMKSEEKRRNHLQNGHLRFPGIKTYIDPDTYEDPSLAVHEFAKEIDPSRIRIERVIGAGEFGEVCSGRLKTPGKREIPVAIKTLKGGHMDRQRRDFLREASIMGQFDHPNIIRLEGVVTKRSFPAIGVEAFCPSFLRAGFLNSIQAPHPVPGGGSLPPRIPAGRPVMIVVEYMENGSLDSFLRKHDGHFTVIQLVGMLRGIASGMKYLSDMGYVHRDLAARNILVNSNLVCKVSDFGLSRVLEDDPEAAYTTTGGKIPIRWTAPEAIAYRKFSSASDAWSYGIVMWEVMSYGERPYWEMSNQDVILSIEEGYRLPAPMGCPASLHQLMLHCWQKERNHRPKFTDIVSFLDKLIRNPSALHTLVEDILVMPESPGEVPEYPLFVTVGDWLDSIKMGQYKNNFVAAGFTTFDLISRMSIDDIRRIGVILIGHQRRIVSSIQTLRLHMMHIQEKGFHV

In the case of `CC#CC(=O)N1CCC[C@H]1c1nc(-c2ccc(C(=O)Nc3ccccn3)cc2)c2c(N)nccn12` [Acalabrutinib], the remaining binding at 0.3 µM on PKN2 turned out to be 93%; on PRKD3 it was 81%; at CDC2L2, 82%; at PIK3CG, 99%; on HIPK1 it was 85%; on YANK3, 84%. In addition, the remaining binding at 0.3 µM was found to be 70% at PIK3CA(H1047Y), 95% at CAMK2G, 93% at EPHA6 and 58% at CAMK1.
Consider `C=CC(=O)N1CCC[C@@H](n2nc(-c3ccc(Oc4ccccc4)cc3)c3c(N)ncnc32)C1` [Ibrutinib], for which the remaining binding at 0.3 µM at MARK3 amounted to 99%.
Regarding `CC#CC(=O)N1CC[C@@H](n2c(=O)n(-c3ccc(Oc4ccccc4)cc3)c3c(N)ncnc32)C1` [Tirabrutinib], the remaining binding at 0.3 µM was 93% at PRKR and 90% at PRKG1.
For `C=CC(=O)N1CCC([C@@H]2CCNc3c(C(N)=O)c(-c4ccc(Oc5ccccc5)cc4)nn32)CC1` [Zanubrutinib], the remaining binding at 0.3 µM on MTOR turned out to be 88%; at MST1 it was 90%; on LRRK2, 64%; at IKK-beta, 100%; on PIK3CA(E545A), 59%; on S6K1 it was 88%. The remaining binding at 0.3 µM at PIK3CB worked out at 98%; at GRK1 it was 100%; at CDKL5, 100%; at IKK-alpha, 84%.
